Data as given in US7955294B2, “Intermittent dosing of nitric oxide gas” (Sensormedics Corporation, priority 2004, dated 2011).

Experiments:
S. aureus (ATCC#25923) = test: Survival of bacteria under cycled high/low NO gas exposure (FIG. 6); type: cell-based; settings: 160 ppm NO gas 30 minutes then 20 ppm 3.5 hours, cycled every 4 hours for 24 hours; compared to air
Description: (§1) The effectiveness of the intermittent high dose delivery of nitric oxide gas in combating microorganisms was tested and verified. Briefly, the experimental methods were as follows. Inoculums of varying bacteria was prepared to a suspension of 2.5×10^8 cfu/ml, and diluted 1:1000 in sterile normal saline. Three milliliters of the inoculums were used per well in a sterile culture place. Exposure of the inoculums were performed in an exposure chamber, which has been described for example, in Ghafarri, A. et al., “A direct nitric oxide gas delivery system for bacterial and mammalian cell cultures,” Nitric Oxide. 12(3):129-40 (May 2005), which is hereby incorporated by reference as if fully set forth herein. The inoculums were exposed to 160 ppm of NO gas at a flow rate of 2.5 liters per minute for 30 minutes followed by exposure to 20 ppm of NO gas for 3.5 hours. The exposure to high and low concentrations of NO gas was repeatedly cycled every 4 hours for 24 hours. At various times (e.g., 0, 4, 8, and 12 hours), samples were taken and plated to determine the survivability of the bacteria as determined by counting cfu/ml.
(§2) FIGS. 6-9 show the survival of various bacteria used in the experiment with NO gas compared to exposure to air as control.

E. coli = test: Survival of bacteria under cycled high/low NO gas exposure (FIG. 9); type: cell-based; settings: 160 ppm NO gas 30 minutes then 20 ppm 3.5 hours, cycled every 4 hours for 24 hours; compared to air
Description: as §1, §2

[1] = system: mycothiol in wild type M. smegmatis; test: Mycothiol level by HPLC after NO gas exposure (FIG. 11); type: cell-based, Mycobacterium smegmatis; settings: 400 ppm NO gas, compared to exposure to air
Description: Further experiments were conducted to assay and measure the mycothiol level using HPLC in wild type M. smegmatis after exposure to 400 ppm NO gas and were compared to mycothiol level after exposure to air.

[2] = system: P. aeruginosa (ATCC#27853); test: Survival of bacteria under cycled high/low NO gas exposure (FIG. 7); type: cell-based; settings: 160 ppm NO gas 30 minutes then 20 ppm 3.5 hours, cycled every 4 hours for 24 hours; compared to air
Description: as §1, §2

[3] = system: mycothiol-deficient Mycobacterium smegmatis Mutant MshA; test: Survival of mycothiol-deficient mutant versus wild type on exposure to NO gas (FIG. 10); type: cell-based; settings: 200 ppm NO gas; wild type counterpart mc^2 155
Description: (§3) Additional studies were performed to test the hypothesis that the effect of NO gas in killing microorganisms is related to thiol function. […] This may be due to Mycobacteria having an exceptional thiol, mycothiol, that maintains the redox balance in the cell and protects the cell from nitrosative and oxidative stress. In order to test this hypothesis, sensitivities to NO gas was compared between mycothiol-deficient Mycobacterium smegmatis Mutant MshA to its wild type counterpart, mc^2 155 by exposing both strains to 200 ppm of NO gas. MshA is an enzyme needed in mycothiol biosynthesis.

[4] = system: P. aeruginosa (clinical strain from Cystic Fibrosis); test: Survival of bacteria under cycled high/low NO gas exposure (FIG. 8); type: cell-based; settings: 160 ppm NO gas 30 minutes then 20 ppm 3.5 hours, cycled every 4 hours for 24 hours; compared to air
Description: as §1, §2

Mycobacteria = test: Sensitivity of various microorganisms to NO gas damage; type: cell-based; settings: compared with various other microorganisms
Description: as §3

With `[N]=O` [NO gas, nitric oxide] as the molecule, how does the “survival of S. aureus (cfu/ml)” value (S. aureus (ATCC#25923)) read?
Its value is “effective method of killing the bacteria”.

What about the “survival of E. coli (cfu/ml)” value (E. coli) of the same molecule?
The value was “effective method of killing the bacteria”.

And the “level of mycothiol in the mycobacterium” value [1]?
Its value is “reduced compared to exposure to air”.

What about the “survival of P. aeruginosa ATCC#27853 (cfu/ml)” value [2] of the same molecule?
Its value is “effective method of killing the bacteria”.

What about the “sensitivity of MshA mutant to NO gas versus wild type” value [3] of the same molecule?
Its value is “more sensitive”.

What about the “time to kill MshA mutant versus wild type” value [3] of the same molecule?
The value was “killed in less time than its wild type counterpart”.

And the “survival of P. aeruginosa clinical strain from Cystic Fibrosis (cfu/ml)” value [4]?
Its value is “effective method of killing the bacteria”.

What about the “sensitivity of Mycobacteria to NO gas damage” value (Mycobacteria) of the same molecule?
The value was “less sensitive”.
